8 molecules from PMC12607499, “Prokaryotic Expression and Binding Characteristics of Odor-Binding Protein GqinOBP10 in Gynaephora qinghaiensis” (International Journal of Molecular Sciences, 2025) can be followed below.

Usually IC50 stands for the concentration that inhibits the measured activity by half. Read a low IC50 as higher potency. Broadly, the Ki is the dissociation constant of the complex between target and ligand, obtained from inhibition or displacement.

The target of this test is T1, GqinOBP10.
T1 construct: gene OBP10; full length 134 residues (405 bp); signal peptide removed; vector pCZN1, E. coli BL21 (DE3); His tag cut off with enterokinase; about 15 kDa
Put plainly: fluorescence competitive binding with 1-NPN probe. On the set-up: species or system Gynaephora qinghaiensis. Particulars: 2 µM protein, 50 mM Tris-HCl pH 7.4; displacement of 1-NPN. The text has this:
fluorescence competitive binding with 1-NPN probe on GqinOBP10

Regarding `OCCC(O)CO` (stereo not shown) [1,2,4-butanetriol], the IC50 was 11.7 µM and the Ki was found to be 11.6 µM.

The molecule `O=C1CCC(=O)CC1` [1,4-Cyclohexanedione] gave an IC50 of 13.1 µM and a Ki of 13 µM.

In turn, `NC1(C(=O)O)CC1` [1-Aminocyclopropane-1-carboxylic acid] returned an IC50 of 18.7 µM and a Ki of 18.6 µM.

For the molecule `OC1CCc2ccccc21` (stereo not shown) [1-Indanol], the IC50 came out at 12 µM and the affinity corresponds to a Ki of 11.9 µM.

For `NCC(O)c1ccccc1` (stereo not shown) [2-Amino-1-phenylethanol], the IC50 was 4.51 µM and the Ki is 4.48 µM.

`CCCCCCCC/C=C\CCCCCCCC(=O)OC(CO)CO` [2-Oleoylglycerol] registered a half-maximal inhibitory concentration (IC50) of 6 µM and a Ki of 5.96 µM.

In turn, `CC(CN)C(=O)O` (stereo not shown) [3-Aminoisobutanoic acid] showed an IC50 of 15 µM and a Ki of 14.9 µM.

In turn, `N#CC[C@H](N)C(=O)O` [β-cyano-L-alanine] had an IC50 of 12.3 µM and an inhibition constant Ki of 12.2 µM.
